Reference: PMC4768256, “Using mutagenesis to explore conserved residues in the RNA-binding groove of influenza A virus nucleoprotein for antiviral drug development” (Scientific Reports, 2016)

Biological target: T1, NP (nucleoprotein of influenza A virus H1N1, full-length wild type) (Influenza A virus (A/Nanchang/11/1996(H1N1)), UniProt Q07FI1)
T1 construct: full-length (498 aa), N-terminal 6xHis-tag as printed, pET21b NdeI/XhoI, E. coli, Ni-NTA, RNase-treated lysate
Format: binding

T1 sequence (Q07FI1 whole entry): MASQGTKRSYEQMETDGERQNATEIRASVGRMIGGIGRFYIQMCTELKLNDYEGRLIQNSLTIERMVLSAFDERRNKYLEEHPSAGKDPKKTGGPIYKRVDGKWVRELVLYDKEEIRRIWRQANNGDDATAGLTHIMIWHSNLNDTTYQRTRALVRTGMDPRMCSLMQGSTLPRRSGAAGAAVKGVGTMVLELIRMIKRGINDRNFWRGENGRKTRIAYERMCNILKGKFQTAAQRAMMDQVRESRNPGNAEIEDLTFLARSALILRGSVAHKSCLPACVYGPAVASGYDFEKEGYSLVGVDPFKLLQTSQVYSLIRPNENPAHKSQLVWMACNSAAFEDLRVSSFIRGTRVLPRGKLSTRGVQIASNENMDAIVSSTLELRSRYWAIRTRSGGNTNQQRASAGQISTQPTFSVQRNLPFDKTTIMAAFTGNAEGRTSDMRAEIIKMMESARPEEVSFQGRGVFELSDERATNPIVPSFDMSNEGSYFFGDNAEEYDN

## COc1cc(/C=C/C(=O)CC(=O)/C=C/c2ccc(O)c(OC)c2)ccc1O [H7, (E,E)-1,7-bis(4-hydroxy-3-methoxyphenyl)-1,6-heptadiene-3,5-dione]
  Kd: 1220 nM
